Here are results for twelve compounds from patent publication US12291519B2, “2-hydroxycycloalkane-1-carbamoyl” (Idorsia Pharmaceuticals Ltd, priority 2019, dated 2025).

SMILES strings stand for the structures.

One experiment has as its target human Gal-1 (hGal-1). In words: Competitive binding assay: biotinylated hGal-1 binding to microplate-adsorbed asialofetuin (ASF). As to conditions: Activity on hGal-1; binding of biotinylated hGal-1 to ASF-coated plates; mean values. An outline of the steps: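 Inhibition measured as loss of hGal-1 (biotinylated, 300–1000 ng/mL, wild type or Cys→Ser mutant) binding to adsorbed asialofetuin over 3 h at 4 °C. Bound lectin detected with streptavidin-HRP and ABTS (410 nm, 30–45 min); IC50 values averaged across repeat measurements.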

The target in another experiment is human Gal-3 (hGal-3) (Homo sapiens (Human), UniProt P17931). In words: Competitive binding assay: biotinylated hGal-3 binding to microplate-adsorbed asialofetuin (ASF). As to conditions: Activity on hGal-3; binding of biotinylated hGal-3 to ASF-coated plates; mean values. An outline of the steps:
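Serially diluted compounds competed with biotinylated human Gal-3 for binding to plate-adsorbed asialofetuin over 3 h at 4 °C. Bound Gal-3 was detected with streptavidin-peroxidase (80 ng/mL, 1 h, 4 °C) and ABTS substrate. IC50 values are means of several measurements.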

Chain of human Gal-1 (hGal-1) (P09382 2-135 limits assumed): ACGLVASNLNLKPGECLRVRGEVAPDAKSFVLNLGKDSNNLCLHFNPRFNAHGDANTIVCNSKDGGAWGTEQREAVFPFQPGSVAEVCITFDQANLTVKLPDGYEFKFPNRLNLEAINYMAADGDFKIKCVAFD
Chain of human Gal-3 (hGal-3) (P17931 whole entry): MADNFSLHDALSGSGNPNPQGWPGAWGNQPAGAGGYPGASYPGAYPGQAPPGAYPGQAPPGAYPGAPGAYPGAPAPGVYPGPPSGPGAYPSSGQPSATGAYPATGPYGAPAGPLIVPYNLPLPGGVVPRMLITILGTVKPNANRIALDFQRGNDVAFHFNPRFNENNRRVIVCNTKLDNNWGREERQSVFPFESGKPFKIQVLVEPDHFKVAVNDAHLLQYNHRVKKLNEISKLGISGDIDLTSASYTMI

Usually IC50 stands for the midpoint of a concentration-inhibition curve. A higher IC50 goes with a need for much substance. With `CO[C@@H]1[C@@H](n2cc(-c3cc(F)c(F)c(F)c3)nn2)[C@@H](O)[C@@H](CO)O[C@H]1C(=O)N(c1cccc(C#N)c1)[C@H]1CCCC[C@@H]1O` [Example 115, (2R,3R,4S,5R,6R)-N-(3-cyanophenyl)-5-hydroxy-N-((1S,2S)-2-hydroxycyclohexyl)-6-(hydroxymethyl)-3-methoxy-4-(4-(3,4,5-trifluorophenyl)-1H-1,2,3-triazol-1-yl)tetrahydro-2H-pyran-2-carboxamide], the values for the IC50 at human Gal-1 (hGal-1) and on human Gal-3 (hGal-3) were 1000 nM and 25 nM, respectively.
Turning to `CO[C@@H]1[C@@H](n2cc(-c3cc(F)c(F)c(F)c3)nn2)[C@@H](O)[C@@H](CO)O[C@H]1C(=O)N(c1cccc(C(F)(F)F)c1)[C@H]1CCCC[C@@H]1O` [Example 116, (2R,3R,4S,5R,6R)-5-hydroxy-N-((1S,2S)-2-hydroxycyclohexyl)-6-(hydroxymethyl)-3-methoxy-N-(3-(trifluoromethyl)phenyl)-4-(4-(3,4,5-trifluorophenyl)-1H-1,2,3-triazol-1-yl)tetrahydro-2H-pyran-2-carboxamide], the IC50 on human Gal-1 (hGal-1) came out at 1950 nM; at human Gal-3 (hGal-3), 26 nM.
On the same counts, the results for `CO[C@@H]1[C@@H](n2cc(-c3cc(F)c(F)c(F)c3)nn2)[C@@H](O)[C@@H](CO)O[C@H]1C(=O)N(c1cc(F)cc(F)c1)[C@H]1CCCC[C@@H]1O` [Example 117, (2R,3R,4S,5R,6R)-N-(3,5-difluorophenyl)-5-hydroxy-N-((1S,2S)-2-hydroxycyclohexyl)-6-(hydroxymethyl)-3-methoxy-4-(4-(3,4,5-trifluorophenyl)-1H-1,2,3-triazol-1-yl)tetrahydro-2H-pyran-2-carboxamide] are 978 nM and 38 nM.
With `COc1cc(F)cc(N(C(=O)[C@@H]2O[C@H](CO)[C@H](O)[C@H](n3cc(-c4cc(F)c(F)c(F)c4)nn3)[C@H]2OC)[C@H]2CCCC[C@@H]2O)c1` [Example 118, (2R,3R,4S,5R,6R)-N-(3-fluoro-5-methoxyphenyl)-5-hydroxy-N-((1S,2S)-2-hydroxycyclohexyl)-6-(hydroxymethyl)-3-methoxy-4-(4-(3,4,5-trifluorophenyl)-1H-1,2,3-triazol-1-yl)tetrahydro-2H-pyran-2-carboxamide], the figures for the IC50 on human Gal-1 (hGal-1) and on human Gal-3 (hGal-3) were 1480 nM and 26 nM, respectively.
In the case of `CO[C@@H]1[C@@H](n2cc(-c3cc(F)c(F)c(F)c3)nn2)[C@@H](O)[C@@H](CO)O[C@H]1C(=O)N(c1cc(C)cc(F)c1)[C@H]1CCCC[C@@H]1O` [Example 119, (2R,3R,4S,5R,6R)-N-(3-fluoro-5-methylphenyl)-5-hydroxy-N-((1S,2S)-2-hydroxycyclohexyl)-6-(hydroxymethyl)-3-methoxy-4-(4-(3,4,5-trifluorophenyl)-1H-1,2,3-triazol-1-yl)tetrahydro-2H-pyran-2-carboxamide], the results for the IC50 on human Gal-1 (hGal-1) and on human Gal-3 (hGal-3) were 1830 nM and 30 nM, respectively.
Regarding `CO[C@@H]1[C@@H](n2cc(-c3cc(F)c(F)c(F)c3)nn2)[C@@H](O)[C@@H](CO)O[C@H]1C(=O)N(c1cc(F)cc(Br)c1)[C@H]1CCCC[C@@H]1O` [Example 120, (2R,3R,4S,5R,6R)-N-(3-bromo-5-fluorophenyl)-5-hydroxy-N-((1S,2S)-2-hydroxycyclohexyl)-6-(hydroxymethyl)-3-methoxy-4-(4-(3,4,5-trifluorophenyl)-1H-1,2,3-triazol-1-yl)tetrahydro-2H-pyran-2-carboxamide], the results for the IC50 on human Gal-1 (hGal-1) and at human Gal-3 (hGal-3) were 422 nM and 21 nM, respectively.
On the same counts, the results for `CO[C@@H]1[C@@H](n2cc(-c3cc(F)c(F)c(F)c3)nn2)[C@@H](O)[C@@H](CO)O[C@H]1C(=O)N(c1cc(F)cc(Cl)c1)[C@H]1CCCC[C@@H]1O` [Example 121, (2R,3R,4S,5R,6R)-N-(3-chloro-5-fluorophenyl)-5-hydroxy-N-((1S,2S)-2-hydroxycyclohexyl)-6-(hydroxymethyl)-3-methoxy-4-(4-(3,4,5-trifluorophenyl)-1H-1,2,3-triazol-1-yl)tetrahydro-2H-pyran-2-carboxamide] are 449 nM and 19 nM.
On to `CO[C@@H]1[C@@H](n2cc(-c3cc(F)c(F)c(F)c3)nn2)[C@@H](O)[C@@H](CO)O[C@H]1C(=O)N(c1cccc(C)c1)[C@H]1CCCC[C@@H]1O` [Example 122, (2R,3R,4S,5R,6R)-5-hydroxy-N-((1S,2S)-2-hydroxycyclohexyl)-6-(hydroxymethyl)-3-methoxy-N-(m-tolyl)-4-(4-(3,4,5-trifluorophenyl)-1H-1,2,3-triazol-1-yl)tetrahydro-2H-pyran-2-carboxamide], for which the IC50 at human Gal-1 (hGal-1) stood at 4750 nM; at human Gal-3 (hGal-3), 43 nM.
In the case of `CO[C@@H]1[C@@H](n2cc(-c3cc(F)c(F)c(F)c3)nn2)[C@@H](O)[C@@H](CO)O[C@H]1C(=O)N(c1ccc2nc(C)[nH]c2c1)[C@H]1CCCC[C@@H]1O` [Example 123, (2R,3R,4S,5R,6R)-5-hydroxy-N-((1S,2S)-2-hydroxycyclohexyl)-6-(hydroxymethyl)-3-methoxy-N-(2-methyl-1H-benzo[d]imidazol-6-yl)-4-(4-(3,4,5-trifluorophenyl)-1H-1,2,3-triazol-1-yl)tetrahydro-2H-pyran-2-carboxamide], the values for the IC50 on human Gal-1 (hGal-1) and on human Gal-3 (hGal-3) were 5880 nM and 85 nM, respectively.
The like results for `O=C(CO[C@@H]1[C@@H](n2cc(-c3cc(F)c(F)c(F)c3)nn2)[C@@H](O)[C@@H](CO)O[C@H]1C(=O)N(c1cc(Cl)cc(Cl)c1)[C@H]1CCCC[C@@H]1O)N1CCOCC1` [Example 124, (2R,3R,4S,5R,6R)—N-(3,5-dichlorophenyl)-5-hydroxy-N-((1S,2S)-2-hydroxycyclohexyl)-6-(hydroxymethyl)-3-(2-morpholino-2-oxoethoxy)-4-(4-(3,4,5-trifluorophenyl)-1H-1,2,3-triazol-1-yl)tetrahydro-2H-pyran-2-carboxamide] were, in that order, 226 nM and 12 nM.
`O=C(CO[C@@H]1[C@@H](n2cc(-c3cc(F)c(F)c(F)c3)nn2)[C@@H](O)[C@@H](CO)O[C@H]1C(=O)N(c1cc(Cl)cc(Cl)c1)[C@H]1CCCC[C@@H]1O)N1CC[C@H](O)C1` [Example 125, (2R,3R,4S,5R,6R)—N-(3,5-dichlorophenyl)-5-hydroxy-N-((1S,2S)-2-hydroxycyclohexyl)-6-(hydroxymethyl)-3-(2-((S)-3-hydroxypyrrolidin-1-yl)-2-oxoethoxy)-4-(4-(3,4,5-trifluorophenyl)-1H-1,2,3-triazol-1-yl)tetrahydro-2H-pyran-2-carboxamide]: the values for the 50% inhibitory concentration (IC50) on human Gal-1 (hGal-1) and at human Gal-3 (hGal-3) were 134 nM and 9 nM, respectively.
The like results for `O=C(CO[C@@H]1[C@@H](n2cc(-c3cc(F)c(F)c(F)c3)nn2)[C@@H](O)[C@@H](CO)O[C@H]1C(=O)N(c1cc(Cl)cc(Cl)c1)[C@H]1CCCC[C@@H]1O)N1CC[C@@H](O)C1` [Example 126, (2R,3R,4S,5R,6R)—N-(3,5-dichlorophenyl)-5-hydroxy-N-((1S,2S)-2-hydroxycyclohexyl)-6-(hydroxymethyl)-3-(2-((R)-3-hydroxypyrrolidin-1-yl)-2-oxoethoxy)-4-(4-(3,4,5-trifluorophenyl)-1H-1,2,3-triazol-1-yl)tetrahydro-2H-pyran-2-carboxamide] were, in that order, 134 nM and 16 nM.
